Experimental data reported in patent US12611423B2, “Medical use of tafoxiparin” (DILAFOR AB, priority 2022, dated 2026).

System: term pregnant, nulliparous women with an unripe cervix
Assay: Clinical phase II trial PPL17 (Parts A and B), subcutaneous tafoxiparin vs placebo
Format: in vivo, human
Details: for women achieving spontaneous onset of labor (FIG. 1): placebo 28.7%; for number of subjects (women) that reach spontaneous onset of labor / subjects (women) that reach spontaneous onset of labor, % of n: cumulative
Procedure: A clinical phase II trial is performed as a randomized, double-blind, placebo-controlled, parallel-group proof of concept study (Part A) with a conditional dose finding follow up study (Part B) to evaluate the efficacy, safety, tolerability and dose response of subcutaneously administered tafoxiparin as a supplement to induction therapy in term pregnant, nulliparous women with an unripe cervix. The study is performed in Sweden and Finland (PPL17), and an EMA (European Medicines Agency) description of the study can be found on the EU Clinical Trials Register web (www.clinicaltrialsregister.eu/ctr-search/search?query=PPL17).
A total of 170 term pregnant women are randomized to receive either 300 mg of tafoxiparin, or corresponding placebo (vehicle), administered subcutaneously every 24±3 hours and up to a total of 7 doses, or until partus (Part A).
In the dose finding follow up study (Part B), a total of 164 term pregnant women are randomized to receive either 75 or 150 mg of tafoxiparin administered subcutaneously every 24±3 hours […] and up to a total of 7 doses, or until partus.
To assess the efficacy of tafoxiparin on cervical ripening/cervical ripening rate, during and up to the first seven days of treatment, measured by Bishop score. All women must be examined to check the cervical state before enrollment.
Tafoxiparin/Placebo is supplied by Dilafor AB to the site as kits designed to constitute 300 mg of tafoxiparin or placebo for daily administration. Apart from the active substance, each ml of study drug will constitute 0.015 M phosphate buffer. The study medication kit for each patient will contain 8 doses consisting of 2 vials containing a minimum extractable volume of 1.6 ml of 150 mg/ml of tafoxiparin or placebo. One dose is a reserve dose in case a dose is rendered unusable. The investigational product should be administered subcutaneously every 24±3 hours by the site staff for up to 7 doses, or until partus. At each dosing time 1.0 ml of the drug will be extracted from each of the 2 vials and injected as separate s.c. injections in the abdominal or hip region.
Tafoxiparin/Placebo is supplied by Dilafor AB to the site as kits designed to constitute 75 or 150 mg of tafoxiparin for daily administration. Apart from the active substance, each ml of study drug will constitute 0.015 M phosphate buffer. The study medication kit for each patient will contain 8 doses consisting of 2 vials for each injection occasion containing a minimum extractable volume of 1.6 ml of 150 mg/ml of tafoxiparin or placebo. For subjects receiving 75 mg of tafoxiparin, one vial will contain active substance and one containing placebo. For subjects receiving 150 mg of tafoxiparin, both vials will contain active substance. One dose is a reserve dose in case a dose is rendered unusable. The investigational product should be administered subcutaneously every 24±3 hours by the site staff for up to 7 doses, or until partus. At each dosing time, 0.5 ml of the drug will be extracted from each of the 2 vials and injected as separate s.c. injections in the abdominal or hip region.
If the subject is found to be eligible for the study, they will be randomized to study treatment, i.e. 300 mg of tafoxiparin or corresponding placebo daily (Part A), or 75 or 150 mg daily (Part B).
The study medication will be administered subcutaneously in the abdominal or hip region for up to a total of 7 doses or until labor induction or spontaneous onset of labor. If the cervix is still unripe after 7 doses of IMP, the patient is given cervical balloon catheter as a mean of labor induction.
Subjects who enter into spontaneous onset of labor after 1-7 doses of IMP should be managed according to clinical routines.
Subjects who are given 4-7 doses without entering into spontaneous onset of labor, but with a ripe cervix (Bishop Score ≥6), should be induced into labor by amniotomy and oxytocin treatment, but not before 4 treatment doses have been given. […]

tafoxiparin
women achieving spontaneous onset of labor (FIG. 1) (75 mg s.c. once daily up to 7 doses, 33 women of 82, p-value 0.102): 40.2%
women reaching spontaneous onset of labor with uncomplicated delivery (75 mg, 22 of the 29 women, placebo 54.5%): 75.9%
number of subjects (women) that reach spontaneous onset of labor (75 mg, Study day 1, n = 33): 0
subjects (women) that reach spontaneous onset of labor, % of n (75 mg, Study day 1, n = 33): (0%)
number of subjects (women) that reach spontaneous onset of labor (75 mg, Study day 2, n = 33): 3
subjects (women) that reach spontaneous onset of labor, % of n (75 mg, Study day 2, n = 33): (9%)
number of subjects (women) that reach spontaneous onset of labor (75 mg, Study day 3, n = 33): 6
subjects (women) that reach spontaneous onset of labor, % of n (75 mg, Study day 3, n = 33): (18%)
number of subjects (women) that reach spontaneous onset of labor (75 mg, Study day 4, n = 33): 11
subjects (women) that reach spontaneous onset of labor, % of n (75 mg, Study day 4, n = 33): (33%)
number of subjects (women) that reach spontaneous onset of labor (75 mg, Study day 5, n = 33): 22
subjects (women) that reach spontaneous onset of labor, % of n (75 mg, Study day 5, n = 33): (67%)
number of subjects (women) that reach spontaneous onset of labor (75 mg, Study day 6, n = 33): 25
subjects (women) that reach spontaneous onset of labor, % of n (75 mg, Study day 6, n = 33): (76%)
number of subjects (women) that reach spontaneous onset of labor (75 mg, Study day 7, n = 33): 32
subjects (women) that reach spontaneous onset of labor, % of n (75 mg, Study day 7, n = 33): (97%)
number of subjects (women) that reach spontaneous onset of labor (75 mg, Study day 8, n = 33): 33
subjects (women) that reach spontaneous onset of labor, % of n (75 mg, Study day 8, n = 33): (100%)
Fetal distress as indication for operative delivery (ODFD), number of women (75 mg, n = 83): 16
Labor induced with PGE-1, number of women (75 mg, n = 83): 7
Labor induced with amniotomy, number of women (75 mg, n = 83): 46
Labor induced with oxytocin, number of women (75 mg, n = 83): 34
Labor induced, number of women (75 mg, n = 83): 48
Labor induction with Balloon catheter, number of women (75 mg, n = 83): 35
Number of patients with operative delivery (75 mg, n = 83): 32
Labor induced with PGE-1, % of women (75 mg, n = 83, placebo 10.2%): 8.4%
Fetal distress as indication for operative delivery (ODFD), % of women (75 mg, n = 83, placebo 22.7%): 19.3%
patients with operative delivery, % (75 mg, n = 83, placebo 45.5%): 38.6%
Labor induced with oxytocin, % of women (75 mg, n = 83, placebo 54.5%): 41.0%
Labor induced with amniotomy, % of women (75 mg, n = 83, placebo 56.8%): 55.4%
Labor induction with Balloon catheter, % of women (75 mg, n = 83, placebo 58.0%): 42.2%
Labor induced, % of women (75 mg, n = 83, placebo 70.5%): 57.8%
women needing instrumental delivery (FIG. 4, vaginal mode of partus) (75 mg, women with spontaneous onset of labor, 7 of the 29 women, p-value=0.181, placebo 45.5%): 24.1%
women needing instrumental delivery or caesarian section to reach partus (FIG. 5) (75 mg, women with spontaneous onset of labor, 11 of 33 women, placebo 52%): 33.3%
women reaching partus by vaginal delivery with no need for instrumental delivery nor caesarian section (FIG. 5) (75 mg, women with spontaneous onset of labor, 22 of 33 women, placebo 48%): 66.7%
women achieving spontaneous onset of labor (FIG. 1) (150 mg s.c. once daily up to 7 doses, 36 women of 85, p-value 0.039): 42.4%
women reaching spontaneous onset of labor with uncomplicated delivery (150 mg, 23 of the 32 women, placebo 54.5%): 71.9%
number of subjects (women) that reach spontaneous onset of labor (150 mg, Study day 1, n = 36): 0
subjects (women) that reach spontaneous onset of labor, % of n (150 mg, Study day 1, n = 36): (0%)
number of subjects (women) that reach spontaneous onset of labor (150 mg, Study day 2, n = 36): 4
subjects (women) that reach spontaneous onset of labor, % of n (150 mg, Study day 2, n = 36): (11%)
number of subjects (women) that reach spontaneous onset of labor (150 mg, Study day 3, n = 36): 15
subjects (women) that reach spontaneous onset of labor, % of n (150 mg, Study day 3, n = 36): (42%)
number of subjects (women) that reach spontaneous onset of labor (150 mg, Study day 4, n = 36): 19
subjects (women) that reach spontaneous onset of labor, % of n (150 mg, Study day 4, n = 36): (53%)
number of subjects (women) that reach spontaneous onset of labor (150 mg, Study day 5, n = 36): 26
subjects (women) that reach spontaneous onset of labor, % of n (150 mg, Study day 5, n = 36): (72%)
number of subjects (women) that reach spontaneous onset of labor (150 mg, Study day 6, n = 36): 30
subjects (women) that reach spontaneous onset of labor, % of n (150 mg, Study day 6, n = 36): (83%)
number of subjects (women) that reach spontaneous onset of labor (150 mg, Study day 7, n = 36): 34
subjects (women) that reach spontaneous onset of labor, % of n (150 mg, Study day 7, n = 36): (94%)
number of subjects (women) that reach spontaneous onset of labor (150 mg, Study day 8, n = 36): 35
subjects (women) that reach spontaneous onset of labor, % of n (150 mg, Study day 8, n = 36): (97%)
number of subjects (women) that reach spontaneous onset of labor (150 mg, Study day 9, n = 36): 36
subjects (women) that reach spontaneous onset of labor, % of n (150 mg, Study day 9, n = 36): (100%)
Fetal distress as indication for operative delivery (ODFD), number of women (150 mg, n = 85): 20
Labor induced with PGE-1, number of women (150 mg, n = 85): 7
Labor induced with amniotomy, number of women (150 mg, n = 85): 39
